Source: publication PMC5371667, “Targeting Bile Acid Receptors: Discovery of a Potent and Selective Farnesoid X Receptor Agonist as a New Lead in the Pharmacological Approach to Liver Diseases” (Frontiers in Pharmacology, 2017)

Tests used:
[1] = target: T1, human GPBAR1 (Homo sapiens, UniProt Q8TDU6); test: GPBAR1 transactivation on HepG2 cells (CRE luciferase reporter); format: cell-based; conditions: 50 and 100 μM
T1 construct: expressed in transfected cells; host or cells: HepG2
T1 sequence (Q8TDU6 1-330): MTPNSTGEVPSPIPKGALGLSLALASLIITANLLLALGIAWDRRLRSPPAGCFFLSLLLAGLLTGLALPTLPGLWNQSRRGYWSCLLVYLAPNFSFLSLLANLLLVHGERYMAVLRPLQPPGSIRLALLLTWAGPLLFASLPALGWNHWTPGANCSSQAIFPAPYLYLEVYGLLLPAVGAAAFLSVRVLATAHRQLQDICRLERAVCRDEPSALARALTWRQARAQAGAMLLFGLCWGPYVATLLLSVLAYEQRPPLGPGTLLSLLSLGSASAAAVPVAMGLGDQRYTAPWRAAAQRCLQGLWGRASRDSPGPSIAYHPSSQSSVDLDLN
Experimental: For FXR mediated transactivation, HepG2 cells were plated at 5 × 10^4 cells/well in a 24 well plate. Cells were transfected with 200 ng of the reporter vector p(hsp27)-TK-LUC containing a FXR response element (IR1) cloned from the promoter of heat shock protein 27 (hsp27), 100 ng of pSG5-FXR, 100 ng of pSG5-RXR, and 100 ng of pGL4.70 (Promega), a vector encoding the human Renilla gene. For GPBAR1 mediated transactivation, HepG2 cells were plated at 5 × 10^4 cells/well in a 24 well-plate and transfected with 200 ng of pGL4.29 (Promega), a reporter vector containing a cAMP response element (CRE) that drives the transcription of the luciferase reporter gene luc2P, with 100 ng of pCMVSPORT6-human GPBAR1, and with 100 ng of pGL4.70 Renilla. […] TLCA (10 μM) was used as a positive control for GPBAR1 activity.

[2] = target: T2, PPARγ (Homo sapiens, UniProt P37231); test: PPARγ transactivation on HepG2 cells (GAL4 LBD reporter); format: cell-based; conditions: 10 μM
T2 construct: expressed in transfected cells; host or cells: HepG2
T2 sequence (P37231 238-503 limits assumed): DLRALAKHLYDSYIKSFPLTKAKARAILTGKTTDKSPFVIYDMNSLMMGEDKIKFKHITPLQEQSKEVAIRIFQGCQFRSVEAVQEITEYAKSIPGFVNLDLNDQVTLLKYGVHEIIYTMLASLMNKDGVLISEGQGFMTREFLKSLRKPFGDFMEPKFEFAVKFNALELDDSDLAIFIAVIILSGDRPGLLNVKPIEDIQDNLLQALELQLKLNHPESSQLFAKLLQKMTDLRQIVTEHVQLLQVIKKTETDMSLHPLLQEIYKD
Experimental: To evaluate LXRα and LXRβ mediated transactivation, HepG2 cells were transfected with 200 ng of the reporter vector p(UAS)5XTKLuc, 100 ng of a vector containing the ligand binding domain of LXRα or LXRβ cloned upstream of the GAL4-DNA binding domain (i.e., pSG5-LXRαLBD-GAL4DBD or pSG5-LXRβLBD-GAL4DBD) and 100 of pGL4.70 Renilla. At 24 h post-transfection, cells were stimulated 18 h with 10 μM compound 2 and GW3965 (GW, 10 μM) was used as positive control. To investigate the PPARα and PPARγ mediated transactivation, HepG2 cells were transiently transfected with 200 ng reporter vector p(UAS)9XTKLuc, 100 ng of a vector containing the ligand binding domain of PPARα or PPARγ cloned upstream of the GAL4-DNA binding domain (i.e., pSG5- PPARαLBD-GAL4DBD or pSG5- PPARγLBD-GAL4DBD) and 100 of pGL4.70 Renilla. For PPARα transactivation, cells were stimulated with 10 μM compound 2 and gemfibrozil (GEM, 10 μM) was used as positive control. For PPARγ transactivation, cells were stimulated with 10 μM compound 2 and rosiglitazone (ROSI, 100 nM) was used as a positive control. Luciferase activities were assayed and normalized with Renilla activities.

[3] = test system: bile acid pool in plasma and gallbladder; test: Bile acid pool in C57BL6 mice (LC-MS/MS)
Experimental: At the day of sacrifice livers, gallbladders, blood and feces were collected from mice for further analysis.
The stock solutions of the individual tauro-conjugated and un-conjugated BAs were prepared separately in methanol at a concentration of 1 mg/mL. All stock solutions were stored at –20°C. Calibration standards were prepared by combining appropriate volumes of each BA stock solution and methanol. […] Mice serum sample aliquots of 20 μL were mixed with 80 μL of CH3OH, shaken continuously, vortexed and, after centrifugation at 16000 g for 10 min, the clear supernatant was transferred to a new vial, snap frozen and lyophilized. The sample was then re-dissolved in 40% water/ 60% MeOH with 0.1% formic acid and ammonium acetate 5 mM. […] For gallbladder, 10 mg of lyophilized gallbladder were manually pestle using a mortar and dissolved in 1 mL CH3OH. After centrifugation at 16000 g for 10 min, 500 μL of supernatants were lyophilized and reconstituted in 100 μL of 40% water/60% MeOH with 0.1% formic acid and ammonium acetate 5 mM.
For LC-MS/MS analysis, chromatographic separation was carried out on the HPLC-MS system Q-TRAP 6500 LC-MS/MS System from AB Sciex equipped with Shimadzu LC-20A LC and AutoSampler system. The mixture was separated on a Synergi Fusion RP 4 m from Phenomenex (150 mm × 2.00 mm).
Tauro-conjugated and non-conjugated BAs were separated at a flow rate of 200 μL/min using a methanol–aqueous ammonium acetate (NH4OAc) gradient. Mobile phase A was water containing 5 mM ammonium acetate and 0.1% formic acid, mobile phase B was methanol, containing ammonium acetate at 5 mM and 0.1% formic acid. […] ESI was performed in negative ion mode and the ion source temperature was set at 280°C. The tune page parameters were automatically optimized injecting taurocholic acid at 1 μM as standard.

CC[C@H]1[C@@H](O)[C@@H]2[C@H](CC[C@]3(C)[C@@H]([C@H](C)CCC(=O)O)CC[C@@H]23)[C@@]2(C)CC[C@H](N=[N+]=[N-])C[C@@H]12 [compound 2, 3β-azido-6α-ethyl-7α-hydroxy-5β-cholan-24-oic acid]
GPBAR1 transactivation [1]: inactivity
PPARγ transactivation [2]: unable in inducing
blood level of tHCA ([3]; 50 mg/kg): significantly reduced
level of tauro-deoxycholic acid (tDCA) ([3]; 50 mg/kg oral): reduction
plasmatic and gallbladder levels of tauro-cholic acid (tCA) ([3]; 50 mg/kg oral): significantly reduced
plasmatic and gallbladder levels of tauro-muricholic acid (tMu) ([3]; 50 mg/kg oral): significantly reduced
